How the values were obtained:
[1] = system: B-lymphotropic papovavirus (LPV) in BJA-B K20 cells; conditions: NeuAc treatment, stated as known; cited from earlier work
[2] = system: B-lymphotropic papovavirus (LPV) in BJA-B K88 cells; assay: LPV infection of analogue-treated normally sialylated cells (VP1 ELISA); format: cell-based, human
Method: (§1) Changes in permissivity for the sialic acid-dependent B-lymphotropic papovavirus (LPV) in hyposialylated (K20) and normally sialylated (K88) BJA-B cells after treatment with sialic acid analogues. Cells were treated with analogues or NeuAc for 3d. 50 h post LPV inoculation the LPV infection was quantified (A) by detecting the amount of LPV VP1 in cell lysates relative to the total protein content by ELISA and (B) by indirect immunofluorescence microscopy as percentage of LPV T-antigen-positive BJA-B K20 cells. A, values are given as arithmetic means±SD of three independent experiments. B, representatives of three experiments are shown. DAPI-staining (left) indicates the total amount of cells in the section, on the right LPV T-antigen positive cells are shown with the average percentage given beside. […]
(§2) BJA-B subclones were infected with the B-lymphotropic papovavirus (LPV) as described (Keppler, O. T., Herrmann, M., Oppenländer, M., Meschede, W., and Pawlita, M. (1994) J Virol 68(11), 6933-9). […] LPV infection was quantified by indirect immunofluorescence microscopy as percentage of LPV T-antigen positive cells and the amount of LPV VP1 in cell lysates was determined by ELISA relative to the total protein extracted.

[3] = system: HL60-I cells; assay: uptake of peracetylated/esterified NeuAc: VVA and TML lectin staining by flow cytometry; format: cell-based, human; conditions: HL60-I cells, 0.03 to 1 mM (NeuAc 1 or 5 mM), 72 h, 0.5% DMSO
Method: Peracetylation of NeuAc only facilitates uptake if the carboxyl group is additionally esterified. Hyposialylated HL60-I cells were cultivated in the presence of indicated synthetic sialic acid analogue (stock solution 200 mM in DMSO) ranging from 0.03 to 1 mM or 0, 1 or 5 mM NeuA for 72 h with DMSO concentrations adjusted to 0.5%. Cells were stained with either directly fluorochrome-coupled lectin VVA, or biotin-coupled lectin (TML) and streptavidin-FITC for analysis by flow cytometry. Values given are relative factors of change of the mean fluorescence intensity of pretreated cells relative to untreated cells. The bars represent arithmetic means±SD (n=3). Molecular structures are given below the diagram.
Sugars are very hydrophilic and it has been shown that increasing the hydrophobicity by peracetylation of hydroxyl groups enables or facilitates uptake of disaccharides (Collins, B. E., Fralich, T. J., Itonori, S., Ichikawa, Y. and Schnaar, R. L. (2000) Glycobiology, 10, 11-20; Sarkar, A. K., Fritz, T. A., Taylor, W. H. and Esko, J. D. (1995) Proc Natl Acad Sci USA, 92, 3323-7; Sarkar, A. K., Rostand, K. S., Jain, R. K., Matta, K. L. and Esko, J. D. (1997) J Biol Chem, 272, 25608-16). For ManNAc derivatives it has been shown that peracetylation reduces required medium concentrations (Collins et al., 2000). The acetyl groups are cleaved-off intracellularly by cellular esterases (Collins et al., 2000; Sarkar et al., 1995; Sarkar et al., 1997) and the derivatives are then processed as known for the non-acetylated sugars. In order to address the question whether peracetylation also facilitates uptake of N-acetylneuraminic acid, HL60-I cells were cultivated in the presence of peracetylated NeuAc at concentrations ranging from 0.03 mM to 1 mM for 3 days. Changes in cell surface sialylation were measured by flow cytometry using Vicia Villosa agglutinin (VVA) and Tritrichomonas mobilensis lectin (TML). […] This represents a reduction in concentration by more than 16-fold and is in a similar range as reported for peracetylated ManNAc and ManNAc (Collins et al., 2000).
(§3) Lyophilized FITC-conjugated lectins Vicia villosa (VVA) was obtained from Sigma, dissolved in H2O (1 mg/ml), aliquoted and stored at −20° C. according to the manufacturer's instructions. FITC-conjugated Limax flavus agglutinin (LFA) was from EY Laboratories (San Manteo, Calif., USA) and biotin-coupled Tritrichomonas mobilensis agglutinin (TLM) from Calbiochem. Lectin staining procedure and fluorescence-activated cell scanning on a Becton Dickinson FACScan cytometer using Cellquest II software were carried out as described (Keppler, O. T., Molden-hauer, G., Oppenländer, M., Schwartz-Albiez, R., Berger, E. G., Funderud, S., and Pawlita, M. (1992) Eur J Immunol 22(11), 2777-81). Briefly, cells (3×10^5) were washed twice in cold PBS and then incubated in 100 μl PBS/0.05% NaN3, containing either fluorochrome-conjugated lectins VVA (50 μg/ml), LFA (20 μg/ml), or biotinylated TLM (20 μg/ml) for 45 min on ice in the dark. For biotinylated TLM a secondary incubation step with steptavidin-FITC (20 μg/ml) (Sigma) for 30 min on ice in the dark is required. After washing with PBS, cells were resuspended in 300 μl PBS and analyzed by flow cytometry.

[4] = system: HL60-I cells; assay: metabolic complementation assay: lectin staining (VVA, LFA, TLM) of analogue-treated cells by flow cytometry; format: cell-based, human; conditions: 5 mM, 24 h; for effect on VVA binding: decrease = masking of GalNAc by sialic acid
Method: Medium supplementation with some synthetic sialic acid analogues restores cell surface sialylation in hyposialylated HL60-I cells. Cells were cultivated in the presence of indicated synthetic sialic acid analogue (5 mM) for 24 h and stained with either directly fluorochrome-coupled lectins (VVA, LFA) or biotin-coupled lectin (TLM) and streptavidin-FITC and analyzed by flow cytometry. Values are given as “relative factor of change” (RFC) of the “mean fluorescence intensity” (MFI) of sialic acid-treated cells relative to untreated cells. The bars represent arithmetic means±SD (n^34) of one (x) or ≧two experiments.
To test whether cells can incorporate synthetic sialic acid analogues from the culture medium, a metabolic complementation assay was performed on endogenously hyposialylated, UDP-GlcNAc-2-epimerase-deficient HL60-I cells.
Cells were cultivated for 24 h in the presence of one of 16 different synthetic sialic acid analogues, carrying distinct C5 or C9 modifications (FIG. 1), and subsequently, changes in cell surface sialylation were assessed by flow cytometry using three fluorochrome-conjugated sialic acid-sensitive lectins. Vicia villosa agglutinin (VVA) detects GalNAc residues, and its binding sites can be masked by the addition of terminal sialic acid residues.
In sugar supplementation assays, cells seeded at 5×10^5 cells/ml in culture medium buffered with 40 mM HEPES (pH 7.2) were cultivated for 24 h in the presence or absence of 5 mM sialic acids (stocks of 100 mM dissolved in H2O, stored at 4° C.).
as §3

[5] = system: B-lymphotropic papovavirus (LPV) in BJA-B K20 cells; assay: LPV infection of analogue-treated hyposialylated cells (VP1 ELISA, T-antigen immunofluorescence); format: cell-based, human; conditions: BJA-B K20 cells (statement also covers K88 cells)
Method: as §1, §2

Row | SMILES | cells infected by LPV [1] | LPV-permissivity [2] | effect on cell surface sialylation (VVA and TML binding) [3] | increase of LFA binding (relative factor of change of mean fluorescence intensity vs untreated cells) [4] | increase of TLM binding (relative factor of change of mean fluorescence intensity vs untreated cells) [4] | effect on VVA binding [4] | LPV-permissivity [5] | effect on LFA binding [4] | effect on TLM binding [4]
1 | CC(=O)N[C@H]1[C@H]([C@H](O)[C@H](O)CO)OC(O)(C(=O)O)C[C@@H]1O (stereo partly shown) [NeuAc, N-acetyl neuraminic acid, reference compound] | about 17% | did not change permissivity significantly | significant changes in lectin binding | 9.5 fold | 4.8 fold | decreased markedly |  |  | 
2 | CC(=O)N[C@H]1[C@H]([C@H](O)[C@@H](C)O)OC(O)(C(=O)O)C[C@@H]1O (stereo partly shown) [analogue a, 5-N-acetyl-9-deoxy-neuraminic acid] |  |  |  |  |  | significantly decreased VVA-binding | to a lesser extent | increased binding of LFA | increased binding

Source: patent publication US20050042714A1, “Glycoconjugates of sialic acid derivates, methods for their production and use thereof” (priority 2001, published 2005)
